Series [1] has as its system TNF^ΔARE/+ model of Crohn's-like ileitis. Particulars: TNFΔARE/+ ileum. The procedure:
Mouse Experiments: All animal protocols were approved by the Vanderbilt University Animal Care and Use Committee and in accordance with NIH guidelines. Lrig1^CreERT2 and Atoh1^flox/flox strains, each in a C57BL/6 background, were purchased from Jackson Laboratory to generate Lrig1^CreERT2/+; Atoh1^fl/fl (AtohKO) animals Cre recombinase activity was induced in two- or three-month-old Lrig1^CreERT2/+; Atoh1^fl/fl and Lrig1^+/+; Atoh1^fl/fl males via intraperitoneal administration of 2 mg of tamoxifen (Sigma-Aldrich) for four consecutive days. Mice were sacrificed and tissues were harvested twenty-one days after the first injection. TNF^ΔARE/+ and wildtype littermates were sacrificed at four months of age after disease onset, followed by tissue collection Animal weights were recorded at regular intervals.
(§1) Mid-dose antibiotics and low-dose antibiotics were 0.75× and 0.25× of the original 1× concentration, respectively.
(§2) Immunofluorescence staining and imaging: Paraffin-embedded ileal tissues were section (5 μm) prior to deparaffinization, rehydration, and antigen retrieval using a citrate buffer (pH 6.0) for 20 minutes in a pressure cooker at 105° C., followed by a 20-minute cool down at room temperature (RT). Endogenous background signal was quenched by incubating tissue slides in 3% hydrogen peroxide for 10 minutes at RT. Tissue sections were blocked in staining buffer (3% bovine serum albumin/10% normal donkey serum) for 1 hour at RT prior to incubation with primary antibody overnight at RT. Antibodies used for immunofluorescence included those against LYZ1 (DAKO, 1:100, rabbit), MUC2 (Santa Cruz, 1:100, rabbit), MPO (DAKO, 1:100, rabbit), DCLK1 (Santa Cruz, 1:100, goat), FOXP3 (eBioscience, 1:50, rat), and GATA3 (Abcam, 1:50, rabbit). Sections were then incubated with AlexaFluor (AF)-555- or AF-647-conjugated secondary antibodies (Life Technologies, 1:500) for 1 hour at RT and Hoechst (1:10,000, Life Technologies) for 10 min at RT. For human tuft cell labeling, AF-488-conjugated pEGFR (Abcam, 1:100) and unconjugated COX2 (CST, 1:100, rabbit) were used. Slides were incubated with anti-rabbit AF-647-conjugated secondary antibody and stained with Hoechst. Imaging was performed using a Zeiss Axio Imager M2 microscope with Axiovision digital imaging system (Zeiss, Jena GmBH, Germany).
Image quantification: To quantify human tuft cells, the number of crypt and villus structures were counted per field of view (FOV) for each subject (approximately 15-20 FOVs per sample). Tuft cell number, as identified by pEGFR and COX co-labeling, was manually counted per FOV in a blinded fashion. Quantification of tuft cell number per epithelial structure (crypt and villus) was generated for each subject and then stratified by disease state (“normal” or “Crohn's disease”) based on the pathology report. Results were analyzed by t-test using Prism GraphPad. For MUC2 quantification, manual demarcation of the epithelial villi was performed in each FOV and a nuclear mask was generated based on Hoechst staining.

Series [2] relates to tuft cells. The procedure:
as §2

In series [3] the test system is ATOH1-independent tuft cells. To be noted: antibiotic-treated AtohKO animals; small intestine.
Text: as §1

Series [4] relates to TCA cycle genes.
Series [5] concerns cytokine levels. The series is described as follows: Multiplex Luminex cytokine levels in short-term succinate-treated TNFΔARE/+ animals.
Series [6] has as its system AtohKO enteroids. The series can be described thus: IL-13 administration in enteroids. Particulars: level similar to IL-13 in control enteroids. Type of series: cell-based, mouse. Here is the method:
Enteroid Experiment: Ileal tissue was dissected and incubated in chelation buffer (3 mM EDTA/EGTA, 0.5 mM DTT, 1% P/S) at 4° C. for 45 minutes. The tissue was shaken in PBS and filtered through a 100 μm filter to isolate individual ileal crypts. The crypt suspension was centrifuged at 2.8×1000 RPM for 1½ minutes at 4° C. following which 10 μl of crypt pellet was resuspended in 300 μl of reduced growth factor Matrigel and embedded in a 24-well dish. Enteroids were cultured initially in IntestiCult Organoid Growth Medium (StemCell Technologies) supplemented with Primocin antimicrobial reagent (InvivoGen, 1:1000) for 4 days before being changed to Primocin-supplemented differentiation media. For ex vivo Cre-activation, Lrig1^CreERT2/+ Atoh1^fl/fl enteroids were treated overnight at 37° C. with either 1 μM 4-hydroxytamoxifen (Sigma-Aldrich) or vehicle (ethanol) in differentiation media. Enteroids were passaged the following day into 8-well chamber slides and, after 5 days, were fixed on ice using 4% PFA for immunofluorescence staining.
Enteroid Immunofluorescence Staining: Fixed enteroids were permeabilized with Triton X-100 for 30 min and blocked with 1% normal donkey serum (PBS) for 30 min at RT. Enteroids were stained with primary antibodies against LYZ1 (DAKO, 1:100, rabbit), MUC2 (Santa Cruz, 1:100, rabbit), and DCLK1 (Santa Cruz, 1:100, goat). […]

Where [7] appears, read: succinate-treated intestinal tissues.
Setting [8] is: short-term succinate vs untreated controls.

Like-named read-outs stand apart in the source and are kept apart here.

Regarding `O=C(O)CCC(=O)O` [succinate, succinic acid], the “FOXP3+ T-regulatory cells” value in series [1] (long-term (1 month) succinate treatment) is “significantly reduced”. Also, in series [1] (succinate-treated), the “DCLK1+ tuft cells” value is listed as “increased” and the “stromal LYZ1 expression” value is listed as “less stromal LYZ1 expression”. In series [1] (succinate-treated vs control), the “depth of inflammation (0-4), pathological scoring” value is “decreased mucosal destruction” and the “extent of tissue injury (0-4), pathological scoring” value was “decreased mucosal destruction”. Further, the tuft cell expansion entry in series [2] (exogenous succinate administration, small intestine) is on record as “induces tuft cell expansion”. Further, the “tuft cell expansion in the colon” value in series [2] (succinate administration, colon) is on record as “did not induce tuft cell expansion”. In series [2] (setting [7]), the “GATA3+ cells” value was “increased” and the “major basic protein-positive eosinophils” value is “increased”. Also, the tuft cell expansion result in series [3] is on record as “restored tuft cell expansion to microbiome-replete levels”. Moreover, the weight gain result (TNFΔARE/+ animals, succinate in drinking water) is recorded as “failed to gain as much weight as untreated controls”. Where the note is “wildtype animals treated with succinate”, the weight gain result is reported as “minimal weight gain”. For the same compound, the “expression of Idh3b, Idh3a, Sdha, Sdhd in the tuft cell lineage” value in series [4] (exogenous succinate treatment) is given as “induced”. Also, the “expression of genes such as Sdhc in the secretory lineage” value in series [4] (succinate treatment) is on record as “significantly reduced”. In addition, in series [4] (untreated and succinate-treated enterocytes), the “relative expression of Mdh2 and Sdhc in enterocytes” value is reported as “constitutively high”. Further, in series [5] (short-term (<1 week) succinate), the IL-17A entry is reported as “significant increase”, the IL-17F result is listed as “significant increase”, the IL-22 levels result is “increased levels” and the IL-23 levels entry is listed as “significantly reduced”. Also, the IL-27 expression entry in series [5] (short-term (<1 week) succinate) is given as “induced”. Besides, in series [5] (short-term succinate), the IL-5 entry is given as “increased”, the IL-9 entry is given as “increased” and the IL-10 result is reported as “increased”. For the same compound, in series [5] (setting [8]), the IL-4 levels result is listed as “significantly increased”, the IL-13 levels entry is recorded as “significantly increased” and the IL-25 levels entry is on record as “significantly increased”. Further, the TNF-α levels entry in series [5] (succinate treatment) is reported as “did not result in decreased TNF-α levels”.
In the case of “IL-13: type 2 cytokine interleukin-13 administered to enteroids”, the “tuft cell specification and expansion” value in series [6] was “induced tuft cell specification and expansion”.

Source of the values: US20220047538A1, “TUFT CELL SPECIFICATION IN INFLAMMATORY ILEITIS” (VANDERBILT UNIVERSITY, priority 2019, published 2022).
